# Patent US11491155B2, “Salt of a pyrimido[6,1-A]isoquinolin-4-one compound” (VERONA PHARMA PLC, priority 2015, dated 2022)
# Counter-ions that a name gives are not always drawn.
# Tests used:
# [1] = Intrinsic dissolution of compressed tablet, pH 7.0, 37° C. (Sirius inForm); format: physicochemical; settings: for Mass of salt (μg) dissolved after 2 hours, Average / Mass of salt (μg) dissolved after 2 hours, Test 1 / Mass of salt (μg) dissolved after 2 hours, Test 2: pH 7.0, 0.15 M NaCl, 37° C.
# In short: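 Compressed 3 mm tablet (~10 mg, 100 kg load), one face exposed, dissolved in pH 7.0 aqueous medium (0.15 M NaCl, 0.01 M acetate/phosphate buffer) at 37° C., stirred at 100 rpm for 2 h. UV absorbance (<1.3) converted to dissolved weight via pH-dependent molar extinction coefficients.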
# [2] = Primary particle size analysis by laser light diffraction (Mastersizer 2000); format: physicochemical; settings: micronised, mean n=3
# Procedure: A Mastersizer 2000 fitted with a Scirocco 2000 dry powder dispersion unit (Malvern Instruments Ltd, UK) was used to analyse the primary particle size of the micronised RPL554 and salt variants. The salts (50 mg) were automatically sampled via a vibrating feed control at a feeder rate of 60% and dispersed in compressed air at a pressure of 3 bar.
# [3] = Solubility of RPL554 and salts in pMDI propellant systems; format: physicochemical
# In short: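 Ten actuations from each pMDI, three replicates per formulation, were filtered through a 0.20 μm filter into a vial cooled in dry ice/acetone, with about 10 s shaking between shots. The filtrate was evaporated to dryness, the residue recovered in 1 mL recovery solution and quantified by HPLC. The percent solubilised was taken against the starting RPL554 mass in the canister, computed from theoretical molecular weights of free base and salts.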
# [4] = RPL554 content and content uniformity of 1% w/w lactose powder blends; format: physicochemical; settings: for Measured Blend Content (% Theoretical): 1% w/w RPL554 variant: lactose powder blend, expressed as RPL554 base; for **Adjusted RPL554 Content per capsule: per 20 mg capsule of 1% w/w lactose blend, adjusted for measured blend content (% theoretical), as RPL554 base
# In short: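 RPL554 free base or salt was sieved (38 μm) with some lactose, mortar-mixed with the rest, and Turbula-blended for 10 min at 46 rpm to give 1% w/w blends. For uniformity, ~20 mg samples from each blend were diluted to 10 mL, sonicated for 3 min and assayed by HPLC.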
# [5] = Aerosol performance of DPI formulations (Cyclohaler, NGI); format: physicochemical; settings: for †Measured Mass of 1% w/w Blend Delivered per capsule / ††RPL554 Emitted (μg) per capsule (B): Cyclohaler; for †Measured Mass of 1% w/w Blend Delivered per capsule: 5 capsules containing 20 mg powder blend, mass from weight change of capsule-loaded device; for ††RPL554 Emitted (μg) per capsule (B): NGI, mass determined from HPLC analysis of recovered samples; for ††RPL554 Emitted (μg) per capsule (B) / Calculated RPL554 Content (μg) per capsule (A): as RPL554 base; for Calculated RPL554 Content (μg) per capsule (A): calculated from delivered blend mass and measured blend content
# In short: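 Capsules held 20 mg of 1% w/w RPL554 free base or salt:lactose blend (200 μg salt, not adjusted for molecular weight). Fired from Cyclohaler at 90 L/min for 2.7 s into NGI with pre-separator, 5 capsules per formulation; drug recovered from device, induction port and stages to derive ED, FPD, FPF.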
# [6] = Physico-chemical characteristics of salt candidates: solubility in water, pH of aqueous suspension/solution, form post water maturation
# Procedure: The physico-chemical characteristics of the salt candidates were determined.
# [7] = listed as ethane-1,2-disulfonate salt
# [8] = HFA 227: 10% Ethanol: 0.1% Tween
# [9] = in HFA 134, listed as Ethane-1,2-disulfonate hemi-salt
# [10] = in HFA 134 with Ethanol/Tween, listed as Ethane-1,2-disulfonate hemi-salt
# [11] = listed as hydrochloride salt, hydrochloride
# [12] = in HFA 134 with Ethanol/Tween, hydrochloride
structure (smiles),measurement,setting,value
"COc1cc2c(cc1OC)-c1c/c(=N\c3c(C)cc(C)cc3C)n(CCNC(N)=O)c(=O)n1CC2 [Ethane-1,2-disulfonate, RPL554 ethane-1,2-disulfonate]","Mass of salt (μg) dissolved after 2 hours, Average",[1]; [7],28.0 µg
same,"Mass of salt (μg) dissolved after 2 hours, Test 1",[1]; [7],21.1 µg
same,"Mass of salt (μg) dissolved after 2 hours, Test 2",[1]; [7],34.9 µg
same,D (0.1) (μm),[2],0.52 μm
same,D (0.5) (μm),[2],1.25 μm
same,D (0.9) (μm),[2],2.78 μm
same,Estimated Solubilised RPL554 μg per 50 μL actuation,[3]; [8],0.11 µg
same,Solubility RPL554,[3]; [8],1.69 µg/g
same,Estimated RPL554 solubilised (%),"[3]; HFA 227: 10% Ethanol: 0.1% Tween, listed as Ethane-1,2-disulfonate hemi-salt",0.07%
same,Solubility RPL554 (μg/g),"[3]; in HFA 134, BLQ = below limit of quantitation (0.06 μg/mL), listed as Ethane-1,2-disulfonate hemi-salt",BLQ
same,Calculated RPL554 solubilised (%),[3]; [9],BLQ
same,Calculated Solubilised RPL554 μg per 50 μL actuation,[3]; [9],BLQ
same,Solubility RPL554,[3]; in HFA 134 with Ethanol/Tween,5 µg/g
same,Estimated RPL554 solubilised (%),[3]; [10],0.20%
same,Estimated Solubilised RPL554 μg per 50 μL actuation,[3]; [10],0.34 µg
same,Solubility RPL554,[3]; [10],5.13 µg/g
same,Calculated RPL554 solubilised (%),[3]; in HFA 227,BLQ
same,Calculated Solubilised RPL554 μg per 50 μL actuation,[3]; in HFA 227,BLQ
same,Solubility RPL554 (μg/g),[3]; in HFA 227,BLQ
same,Measured Blend Content (% Theoretical),[4],80.18 % Theoretical
same,**Adjusted RPL554 Content per capsule,[4],133.73 µg
same,†Measured Mass of 1% w/w Blend Delivered per capsule,[5],19.90 mg
same,††RPL554 Emitted (μg) per capsule (B),[5],87.91 µg
same,Calculated RPL554 Content (μg) per capsule (A),[5],133.06 µg
same,pH of aqueous suspension/solution,"[6]; listed as Ethane-1,2-disulfonic",3.72
"COc1cc2c(cc1OC)-c1c/c(=N\c3c(C)cc(C)cc3C)n(CCNC(N)=O)c(=O)n1CC2 [Hydrochloride, RPL554 hydrochloride]","Mass of salt (μg) dissolved after 2 hours, Average",[1]; [11],35.6 µg
same,"Mass of salt (μg) dissolved after 2 hours, Test 1",[1]; [11],31.7 µg
same,"Mass of salt (μg) dissolved after 2 hours, Test 2",[1]; [11],39.4 µg
same,D (0.1) (μm),[2]; hydrochloride,0.53 μm
same,D (0.5) (μm),[2]; hydrochloride,1.37 μm
same,D (0.9) (μm),[2]; hydrochloride,3.47 μm
same,Solubility RPL554 (μg/g),"[3]; in HFA 134, BLQ = below limit of quantitation (0.06 μg/mL), hydrochloride",BLQ
same,Calculated RPL554 solubilised (%),"[3]; in HFA 134, hydrochloride",BLQ
same,Calculated Solubilised RPL554 μg per 50 μL actuation,"[3]; in HFA 134, hydrochloride",BLQ
same,Estimated RPL554 solubilised (%),[3]; [12],5.27%
same,Estimated Solubilised RPL554 μg per 50 μL actuation,[3]; [12],9.79 µg
same,Solubility RPL554,[3]; [12],149.17 µg/g
same,Calculated RPL554 solubilised (%),[3]; in HFA 227,BLQ
same,Calculated Solubilised RPL554 μg per 50 μL actuation,[3]; in HFA 227,BLQ
same,Solubility RPL554 (μg/g),[3]; in HFA 227,BLQ
same,Measured Blend Content (% Theoretical),[4]; hydrochloride,84.42 % Theoretical
same,**Adjusted RPL554 Content per capsule,[4]; hydrochloride,156.86 µg
same,†Measured Mass of 1% w/w Blend Delivered per capsule,[5]; hydrochloride,20.14 mg
same,††RPL554 Emitted (μg) per capsule (B),[5]; hydrochloride,102.27 µg
same,Calculated RPL554 Content (μg) per capsule (A),[5]; hydrochloride,157.96 µg
same,pH of aqueous suspension/solution,"[6]; listed as Hydrochloric anhydrous source, hydrochloride",3.68
same,pH of aqueous suspension/solution,"[6]; listed as Hydrochloric aqueous source, hydrochloride",3.84
"COc1cc2c(cc1OC)-c1c/c(=N\c3c(C)cc(C)cc3C)n(CCNC(N)=O)c(=O)n1CC2 [Sulfate, RPL554 sulfate]",dissolution compared with free base / other salts,[1]; 2 hour experiments,higher dissolution than the rest of the salts
same,dissolution behaviour over 24 hours,[1]; 24 hours experiment,did start to precipitate slowly but still remained highly supersaturated even after 24 hrs
same,maximum pH change (decrease) during dissolution,"[1]; nominal start pH 7, listed as sulfate salt",about 0.15 pH units
same,"Mass of salt (μg) dissolved after 2 hours, Average",[1]; listed as sulfate salt,6205 µg
same,"Mass of salt (μg) dissolved after 2 hours, Test 1",[1]; listed as sulfate salt,5910 µg
same,"Mass of salt (μg) dissolved after 2 hours, Test 2",[1]; listed as sulfate salt,6500 µg
same,D (0.1) (μm),[2],0.51 μm
same,D (0.5) (μm),[2],1.12 μm
same,D (0.9) (μm),[2],2.30 μm
same,Calculated RPL554 solubilised (%),[3]; in HFA 134,BLQ
same,Calculated Solubilised RPL554 μg per 50 μL actuation,[3]; in HFA 134,BLQ
same,Solubility RPL554 (μg/g),"[3]; in HFA 134, BLQ = below limit of quantitation (0.06 μg/mL)",BLQ
same,Estimated RPL554 solubilised (%),[3]; in HFA 134 with Ethanol/Tween,2.84%
same,Estimated Solubilised RPL554 μg per 50 μL actuation,[3]; in HFA 134 with Ethanol/Tween,4.71 µg
same,Solubility RPL554,[3]; in HFA 134 with Ethanol/Tween,73.19 µg/g
same,Calculated RPL554 solubilised (%),[3]; in HFA 227,BLQ
same,Calculated Solubilised RPL554 μg per 50 μL actuation,[3]; in HFA 227,BLQ
same,Solubility RPL554 (μg/g),[3]; in HFA 227,BLQ
same,Measured Blend Content (% Theoretical),[4],73.50 % Theoretical
same,**Adjusted RPL554 Content per capsule,[4],121.95 µg
same,†Measured Mass of 1% w/w Blend Delivered per capsule,[5],19.78 mg
same,††RPL554 Emitted (μg) per capsule (B),[5],79.35 µg
same,Calculated RPL554 Content (μg) per capsule (A),[5],120.61 µg
same,pH of aqueous suspension/solution,[6]; listed as Sulfuric - aqueous solution,1.87
